Test results as given in PubChem BioAssay (NCI).
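Tested at 5 concentrations; 48 h exposure; 96-well plates; endpoints linearly interpolated, else capped at highest concentration. Abbreviation: GI50, concentration required for 50% inhibition of growth. TGI is the concentration that stops growth completely.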

What was measured:
Test in all cases: DTP human tumour cell line panel, 48 h
HCT-116 colon = system: HCT-116 colon
TK-10 renal = system: TK-10 renal
UACC-257 melanoma = system: UACC-257 melanoma
M14 melanoma = system: M14 melanoma
K-562 leukemia = system: K-562 leukemia
MOLT-4 leukemia = system: MOLT-4 leukemia
SF-295 CNS = system: SF-295 CNS
A549 NSCLC = system: A549 NSCLC
EKVX NSCLC = system: EKVX NSCLC
SF-539 CNS = system: SF-539 CNS
MDA-MB-435 = system: MDA-MB-435

Compound | TGI (HCT-116 colon) | TGI (TK-10 renal) | TGI (UACC-257 melanoma) | TGI (M14 melanoma) | TGI (K-562 leukemia) | TGI (MOLT-4 leukemia) | TGI (SF-295 CNS) | TGI (A549 NSCLC) | TGI (EKVX NSCLC) | TGI (SF-539 CNS) | TGI (MDA-MB-435) | GI50 (HCT-116 colon) | GI50 (TK-10 renal) | GI50 (M14 melanoma) | GI50 (K-562 leukemia) | GI50 (SF-295 CNS) | GI50 (EKVX NSCLC) | GI50 (MDA-MB-435)
O=c1c2ccccc2[nH]c(=S)n1-c1ccc(N=Nc2cccc3c(O)cccc23)cc1 | > 100 µM | > 100 µM | > 100 µM | > 100 µM | > 100 µM | > 100 µM | > 100 µM | > 100 µM | > 100 µM | > 100 µM | 68.9 µM |  |  |  |  |  |  | 
CC(C)(C)OC(=O)NCCCCC(NC(=O)OCc1ccccc1)C(N)=O (stereo not drawn) | > 100 µM | > 100 µM | > 100 µM | > 100 µM | > 100 µM | > 100 µM | > 100 µM | > 100 µM | > 100 µM | > 100 µM | > 100 µM |  |  |  |  |  |  | 
O=c1[nH]c2nc3ccccc3c(=O)n2/c1=C/c1ccc(O)cc1 | > 100 µM | > 100 µM | > 100 µM | > 100 µM |  | > 100 µM | > 100 µM | > 100 µM | > 100 µM | 46.6 µM | 69.8 µM |  |  |  |  |  |  | 
Nc1nc(Cl)cc(NCC2(CO)CC(CCc3ccccc3)C2)n1 (stereo not drawn) | > 100 µM | > 100 µM | > 100 µM | > 100 µM | > 100 µM | > 100 µM | > 100 µM | > 100 µM | > 100 µM | > 100 µM | > 100 µM |  |  |  |  |  |  | 
CCN(CC)CCOC(c1cc(OC)ccc1OC)c1ccc2n1-c1ccccc1OC2 (stereo not drawn) | > 100 µM | 25.4 µM | 30.6 µM | 33.2 µM | 23.5 µM |  | 23.9 µM | 26.9 µM | 33.1 µM |  | 22.2 µM |  |  |  |  |  |  | 
CCCN=C1CC(C)Nc2ccccc2N1 (stereo not drawn) | > 100 µM | > 100 µM | > 100 µM | > 100 µM | > 100 µM | > 100 µM | > 100 µM | > 100 µM | > 100 µM |  | > 100 µM |  |  |  |  |  |  | 
CCC(=O)C(c1ccccc1)c1ccccn1 (stereo not drawn) | > 100 µM | > 100 µM | > 100 µM | > 100 µM |  |  | > 100 µM | > 100 µM | > 100 µM |  | > 100 µM |  |  |  |  |  |  | 
C=CC(=O)c1ccc2c(c1)OCCOCCOCCOCCOCCO2 | > 56.2 µM | 31.1 µM | 35.6 µM | 41.6 µM | > 100 µM | > 100 µM | > 100 µM | > 100 µM | 57.9 µM | 33.2 µM | 43.2 µM |  |  |  |  |  |  | 
N#C/C(=C\NC(=S)Nc1ccc(S(=O)(=O)Nc2ccccn2)cc1)C(N)=O | > 100 µM | > 100 µM | > 100 µM | > 100 µM | > 100 µM | > 100 µM | > 100 µM | > 100 µM | > 100 µM | > 100 µM | > 100 µM |  |  |  |  |  |  | 
COC(=O)C1(Cc2ccccc2)Cc2cc3c(cc2C1=O)CCC3 (stereo not drawn) | > 100 µM | > 100 µM | > 100 µM | 57.6 µM | 81.8 µM | 43.1 µM | > 100 µM | > 100 µM | 86.1 µM | > 100 µM | 36.9 µM |  |  |  |  |  |  | 
c1ccc(C[P+]2(c3ccccc3)c3ccccc3-c3ccccc32)cc1 | > 100 µM | > 100 µM | > 100 µM | > 100 µM | > 100 µM | > 100 µM | > 100 µM | > 100 µM | > 100 µM | > 100 µM | > 100 µM |  |  |  |  |  |  | 
CCCCCCCCCC[C@@H](O)[C@H]1CC[C@H]([C@H]2CC[C@H]([C@H](O)CCCCCCCCCC[C@@H]3CC(CC(C)=O)C(=O)O3)O2)O1 (stereo partly drawn) | > 37.2 µM | > 50 µM | > 50 µM | > 50 µM | > 50 µM | > 50 µM | > 50 µM | > 50 µM | > 50 µM | > 50 µM | > 50 µM | 1.32 µM | 2.33 µM | 5.29 µM | 0.884 µM | 2.22 µM | 1.57 µM | 1.86 µM
COc1cc2oc(-c3ccc(O)cc3)c(OC3OC(C)C(O)C(O)C3O)c(=O)c2c(O)c1OC (stereo not drawn) | > 100 µM | > 100 µM | > 100 µM | > 100 µM | > 100 µM | > 100 µM | > 100 µM | > 100 µM | > 100 µM | > 100 µM | > 100 µM |  |  |  |  |  |  | 
COc1ccc2c(c1)c1c(n2CCN2CCOCC2)-c2ccccc2CC1 | > 100 µM | > 100 µM | > 100 µM | > 100 µM | 40.2 µM | 48 µM | > 100 µM | > 100 µM |  | 71.3 µM | > 100 µM |  |  |  |  |  |  | 
CCOc1ccc(N/C(=C(/C(Cl)=C(/Cl)NCCN)[N+](=O)[O-])n2nnc3ccccc32)cc1 | 74.6 µM |  | > 100 µM | > 100 µM | > 100 µM | > 100 µM | > 100 µM | > 100 µM | > 100 µM | 41.9 µM | > 100 µM |  |  |  |  |  |  | 
CCCCc1c(O)nc(Nc2nc3ccccc3[nH]2)[nH]c1=O | > 100 µM | > 100 µM | > 100 µM | > 100 µM | > 100 µM | > 100 µM | > 100 µM | > 100 µM | > 100 µM | > 100 µM | > 100 µM |  |  |  |  |  |  | 
CC(=O)C(CN1CCCCC1)C(c1ccccc1)c1c(O)c2ccccc2oc1=O (stereo not drawn) | > 100 µM | > 100 µM | > 100 µM | > 100 µM | > 100 µM | > 100 µM | > 100 µM | > 100 µM | > 100 µM | > 100 µM | > 100 µM |  |  |  |  |  |  | 
O=c1c2c3ccccc3[nH]c2c2cccc3c2n1CCC3 | > 100 µM | > 100 µM | > 100 µM | > 100 µM | > 100 µM | 86 µM | > 100 µM | > 100 µM | 95.1 µM | > 100 µM | > 100 µM |  |  |  |  |  |  | 
Cc1ccc(-c2cc(N)n(-c3nc4c([nH]3)c(=O)n(C)c(=O)n4C)n2)cc1 | 15.9 µM | 26.4 µM | 82.3 µM | 24.4 µM | > 100 µM | > 100 µM | 24.9 µM | > 100 µM | 21.6 µM | 16 µM | > 100 µM |  |  |  |  |  |  | 
O=C1CC(c2ccco2)C2(C(=O)NC(=O)NC2=O)C(c2ccco2)C1 (stereo not drawn) | > 75 µM | > 75 µM | > 75 µM | > 75 µM | > 75 µM | > 75 µM | > 75 µM | > 75 µM | > 75 µM | > 75 µM | > 75 µM |  |  |  |  |  |  | 
